The text below walks through data of patent US8691528B2, “Cell penetrating peptide” (Mitsubishi Tanabe Pharma Corporation, priority 2005, dated 2014).

“Also recorded” adds a separate entry of the source.

What all share (type): cell-based
The test system of test [1] is CHO cells. Kind of test: Confocal microscopic analysis of translocation of fluorescence-labeled peptides into CHO cells. As to conditions: for intracellular translocation profile compared with PTD1: Example 5-2, 50 μM to 12.5 μM (FIG. 19: 25 μM). The procedure: (§1) Three kinds of cells were used for incorporating the peptides: CHO cells (ATCC NO. CCL-61), HeLa cells, and Jurkat cells. 10^4 CHO cells and HeLa cells and 10^5 Jurkat cells were separately inoculated to a 96-well plate, and cultured for 2 or 3 days. Subsequently, when the cells became confluent, each peptide solution was added to each type of cell, and the cells were incubated for 1 hour. After each type of cell was washed with PBS three times, 100 μL of 0.25% trypsin-1 mM EDTA solution was added, and trypsinization was performed at room temperature for 5 minutes. After 400 μL of PBS (10% FCS) was added to neutralize the trypsin, the cells were washed with 1 mL of HBSS (Hanks' Balanced Salt Solution/produced by Invitrogen) three times. After the washing, the cells were suspended in 50 μL of HBSS and analyzed using a confocal microscope. Measurements and analysis were performed using a confocal differential interference laser microscope system (Bio-Rad, Radience2100/Green He-Ne, 488 nm, microscope: Nikon, ECLIPSE E600).
Furthermore, CHO cells were inoculated to a slide chamber (produced by Nunc), 25 μM of each of the KSH1 peptide and positive control was added to the CHO cells, and the intracellular transferability thereof was determined using a confocal microscope.
For KSH2 to KSH10 (SEQ ID NOS:35 to 43 in the sequence listing), a test of translocation into CHO cells was performed in the same manner as Example 1-2, and confocal microscopic analysis was performed. Used for positive control were a PTD sequence derived from HIV TAT (SEQ ID NO:50 in the sequence listing) and the KSH1 peptide; used for negative control was a peptide sequence lacking intracellular transferability (SEQ ID NO:57 in the sequence listing).
In the confocal microscopic analysis, a background correction was performed using cells to which the negative control peptide (SEQ ID NO:57 in the sequence listing) had been added. Thereafter, the positive control PTD1 peptide (SEQ ID NO:50 in the sequence listing) was added, and fluorescence in the cells was examined.
Regarding novel PTD sequence, each peptide was analyzed in a series of 2-fold dilutions at three levels from 50 μM to 12.5 μM. […] The PTD candidate sequences identified here clearly retained the capability of intracellular translocation.

The test system of test [2] is CHO cells, HeLa cells, and Jurkat cells. Nature of the test: Confocal microscopic analysis of intracellular translocation of fluorescence-labeled peptides. As to conditions: fluorescence-labeled peptide, confocal microscope.
From the text: With the PTD derived from HIV TAT protein shown by SEQ ID NO:50 in the sequence listing as the positive control (in FIG. 1 to FIG. 3, denoted by “Positive” or “TAT”), and a mutant of the TAT-derived PTD shown by SEQ ID NO:51 in the sequence listing, reported by Ulo Langel et al. (Cell-Penetrating Peptides: Processes and Applications, Series: Pharmacology and Toxicology: Basic and Clinical Aspects Volume:3, 2002), as the negative control (in FIG. 1, denoted by “Negative”), the peptides of the 11 sequences selected in Example 1-1 were evaluated.
The peptides of the 11 sequences selected in Example 1-1 were synthesized by the solid phase method, and fluorescently labeled by coupling 5,6-Carboxyfluorescein to the N-terminus of each peptide. Furthermore, the peptides were purified by HPLC to obtain a purity of 70% or more. Subsequently, each fluorescently labeled peptide was dissolved in 10% Dimethyl Sulfoxide (DMSO) to obtain 1 mM (hereinafter referred to as peptide solution).
as §1
Of the novel PTD sequences found in Example 5, the KSH2 peptide is highly capable of translocating eGFP into cells; an attempt was made to modify the KSH2 peptide. The KSH2-1 to KSH2-4 peptides (SEQ ID NOS:44 to 47 in the sequence listing) were synthesized, fluorescently labeled, purified and dissolved in the same manner as Example 1-2, a test of translocation into CHO cells was performed, and confocal microscopic analysis was performed.
First, two cases were examined: two cysteines were substituted with alanine (KSH2-1) or with tryptophan (KSH2-2). FITC-labeled peptides were synthesized, and their intracellular translocation efficiencies were examined using CHO, HeLa, and Jurkat cells (FIG. 21, the peptide addition concentration was 50 μM, 25 μM or 12.5 μM).

A further test relates to HeLa cells. Nature of the test: Confocal microscopic analysis of intracellular translocation of synthetic peptides in HeLa cells. Here is the method:
as §1
In HeLa cells as with CHO cells, intracellular translocation experiments of synthetic peptides of modified PTD sequences were performed by confocal microscopic analysis.

The test system of a further test is Jurkat cells. Nature of the test: Confocal microscopic analysis of intracellular translocation of synthetic peptides in Jurkat cells. Here is the method:
as §1
In Jurkat cells as well, intracellular translocation experiments of synthetic peptides of modified PTD sequences were performed by confocal microscopic analysis.

The test system of test [3] is CHO cells. Nature of the test: Test of translocation of fluorescence-labeled peptides into CHO cells (FACS and confocal microscopic analysis). As to conditions: FACS; between 25 μM and 6.15 μM.
Test [4] has as its system CHO cells. The test is described as above. As to conditions: for intracellular translocation compared with KSH1 (in words): 50 μM, 25 μM, 12.5 μM and 6.5 μM. The procedure:
Each peptide solution, adjusted to 1 mM, was diluted with a medium to three levels, 100 μM, 50 μM, and 25 μM, and added to cells. Three kinds of cells were used: CHO cells, HeLa cells, and Jurkat cells. After each peptide solution was added, the cells were incubated for 1 hour. After the cells were washed with PBS three times, 100 μL of 0.25% trypsin-1 mM EDTA solution was added, and trypsinization was performed at room temperature for 5 minutes. After 400 μL of PBS (10% FCS) was added to stop the trypsinization, the cells were washed with 1 mL of HBSS three times. After the washing, the cells were suspended in 500 μL of PBS (10% FCS) and subjected to flowcytometry (hereinafter, FACS) analysis using FACS Calibur (Becton Dickinson).
Each peptide was synthesized, fluorescently labeled, purified and dissolved in the same manner as Example 1-2, a test of translocation into CHO cells was performed, and an evaluation was performed by confocal microscopic analysis and FACS. FACS analysis was performed in the same manner as Example 1-3. For the KSH1 peptide and modified PTD sequences, i.e., KSH1-1 to KSH1-9 peptides (SEQ ID NOS:1 to 9 in the sequence listing), fluorescence intensities determined by FACS analysis are shown in FIG. 6. The peptide addition concentrations were 50 μM, 25 μM, 12.5 μM and 6.5 μM.
To determine which amino acids are important to the intracellular translocation, comprehensive alanine substitution was performed on the basis of KSH1-1 to design KSH1-11 (SEQ ID NO:11 in the sequence listing) to KSH1-23 (SEQ ID NO:22 in the sequence listing) and KSH1-35 (SEQ ID NO:32 in the sequence listing) (FIG. 7). Each peptide was synthesized, fluorescently labeled, purified and dissolved in the same manner as Example 1-2, a test of translocation into CHO cells was performed, and an evaluation was performed by confocal microscopic analysis and FACS. FACS analysis was performed in the same manner as Example 1-3. For KSH1 and modified PTD sequences, i.e., KSH11-11 to 23 and KSH1-35, fluorescence intensities determined by FACS analysis are shown in FIG. 8. The peptide addition concentrations were 50 μM, 25 μM, 12.5 μM and 6.5 μM.
Each peptide was synthesized, fluorescently labeled, purified and dissolved in the same manner as Example 1-2, a test of translocation into CHO cells was performed, and an evaluation was performed by confocal microscopic analysis and FACS analysis. FACS analysis was performed in the same manner as Example 1-3. For KSH1 and modified PTD sequences, i.e., KSH11-24 to 1-26 and KSH1-28 to 1-30, fluorescence intensities determined by FACS analysis are shown in FIG. 10. The peptide addition concentrations were 50 μM, 25 μM, 12.5 μM and 6.5 μM.
Each peptide was synthesized, fluorescently labeled, purified and dissolved in the same manner as Example 1-2, a test of translocation into CHO cells was performed, and an evaluation was performed by confocal microscopic analysis and FACS analysis. FACS analysis was performed in the same manner as Example 1-3. For KSH1 and modified PTD sequences, i.e., KSH1-27, KSH1-33, KSH1-34 and KSH1-36, fluorescence intensities determined by FACS analysis are shown in FIG. 12. The peptide addition concentrations were 50 μM, 25 μM, 12.5 μM and 6.5 μM.
Each peptide was synthesized, fluorescently labeled, purified and dissolved in the same manner as Example 1-2, and an intracellular translocation test in CHO cells was performed by FACS analysis. Used for positive control were a PTD sequence derived from HIV TAT ([…] in the sequence listing) and the KSH1 peptide; used for negative control was a peptide sequence lacking intracellular transferability (SEQ ID NO:57 in the sequence listing).

With “KSH4: novel PTD sequence from the 7-time-concentrated library of Jurkat cells (KNAWKHSSCHHRHQI; Designed peptide to act as PTD(Protein Transduction Domain))”, in the test on CHO cells [1], the “intracellular translocation profile compared with PTD1” value was “better intracellular translocation profiles than PTD1”.

In the case of “KSH7: novel PTD sequence from the 7-time-concentrated library of Jurkat cells (QQHLLIAINGYPRYN; Designed peptide to act as PTD(Protein Transduction Domain))”, in the test with CHO cells [1], the “intracellular translocation profile compared with PTD1” value is listed as “better intracellular translocation profiles than PTD1”.

As to “KSH10: novel PTD sequence from the 7-time-concentrated library of Jurkat cells (KRPTMRFRYTWNPMK; Designed peptide to act as PTD(Protein Transduction Domain))”, in the test with CHO cells [1], the “intracellular translocation profile compared with PTD1” value is reported as “better intracellular translocation profiles than PTD1”.

On to “KSH3: novel PTD sequence from the 7-time-concentrated library of Jurkat cells (IPSRWKDQFWKRWHY; Designed peptide to act as PTD(Protein Transduction Domain))”, for which the “intracellular translocation profile compared with PTD1” value with CHO cells [1] is “better intracellular translocation profiles than PTD1”.

As to “KSH1: novel PTD candidate sequence of 15 amino acids selected from the random peptide library (KLWMRWYSPTTRRYG; Designed peptide to act as PTD(Protein Transduction Domain))”, the “translocation into CHO cells” value in the test on CHO cells [1] (slide chamber, 25 μM) is given as “translocated into all CHO cells”. Moreover, the “localization of the intracellularly transported peptide” value in test [2] was “detected both in the nucleus and in cytoplasm”. Moreover, in test [2] (incubated 1 hour), the “fluorescence from the peptide in the cells” value is reported as “fluorescence from the KSH1 peptide was observed”; the “fluorescence intensity compared with the positive control (PTD derived from HIV TAT, SEQ ID NO:50)” value is “higher than the fluorescence intensity of the positive control”; the “intracellular transferability among the peptides of the 11 selected sequences” value is given as “highest intracellular transferability”.

In the case of “KSH1-7: KSH1 with threonine substituted with tryptophan to form a tryptophan cluster (KLWMRWYSPWTRRYG; Designed peptide to act as PTD(Protein Transduction Domain))”, the “intracellular translocation in HeLa cells compared with CHO cells” value in the test on HeLa cells (confocal microscopic analysis) is “lower”. In the test with Jurkat cells, the “intracellular translocation in Jurkat cells as compared to that of SEQ ID NO:37” value is “better intracellular translocation”. Besides, the “intracellular translocation compared with KSH1” value in the test with CHO cells [3] is on record as “not less than 3 times”; with CHO cells [4] (FACS, 12.5 μM) it was “not less than 10 times”. Also, the “intracellular translocation compared with KSH1 (in words)” value with CHO cells [4] is on record as “accentuated remarkably; also recorded: clearly accentuated intracellular translocation”.

As for “KSH6: novel PTD sequence from the 7-time-concentrated library of Jurkat cells (LITKQYRYPSRRRFN; Designed peptide to act as PTD(Protein Transduction Domain))”, in the test with CHO cells [1], the “intracellular translocation profile compared with PTD1” value is on record as “better intracellular translocation profiles than PTD1”.

For “KSH1-9: modified KSH1 with the number of tryptophans increased to 4 (RLWMRWYSPWTRRWG; Designed peptide to act as PTD(Protein Transduction Domain))”, the “intracellular translocation in HeLa cells (modified peptides with better translocation)” value with HeLa cells (confocal microscopic analysis) is recorded as “better intracellular translocation”. Moreover, the “intracellular translocation in Jurkat cells as compared to that of SEQ ID NO:37” value in the test on Jurkat cells was “better intracellular translocation”. Moreover, the “intracellular translocation compared with KSH1 (in words)” value in the test with CHO cells [4] was “the same tendency as KSH1-8; also recorded: clearly accentuated intracellular translocation”.

For the substance “KSH2: novel PTD sequence from the 7-time-concentrated library of Jurkat cells (WKCRRQCFRVLHHWN; Designed peptide to act as PTD(Protein Transduction Domain))”, the “intracellular translocation profile compared with PTD1” value in the test with CHO cells [1] is “better intracellular translocation profiles than PTD1”. For the same substance, in the test with HeLa cells (Example 5-2), the “localization of the peptide in HeLa cells” value was “localized as fringing the surface of the cell membrane”.
